These results are taken from patent US11753407B2, “Compounds for treating spinal muscular atrophy” (PTC Therapeutics, Inc., priority 2012, dated 2023).

Data set [1] deals with SMN2 minigene mRNA (SMN2-A minigene) in HEK293H cells. The data set is described as follows: SMN2 minigene mRNA splicing RT-qPCR assay in cultured cells. The class given is cell-based, human. The conditions noted are these: Homo sapiens, HEK293-H; concentration increasing full length SMN2 mRNA 1.5-fold relative to vehicle-treated cells; HEK293H cells with SMN2-A minigene, 24 hours, 7-point concentration data; read-out: EC1.5x for production of full length SMN2 mRNA. The essentials: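 Read-out: minigene-specific full-length (exon 7-included) SMN2 mRNA by one-step multiplex RT-qPCR, normalized to GAPDH and divided by vehicle-treated level. Stable SMN2-A minigene HEK293H cells, 24 h compound exposure, 7 concentrations in duplicate. EC1.5× = concentration raising FL mRNA 1.5-fold.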
In general terms: Real-time PCR tracks product formation cycle by cycle.

In data set [2] the test system is Smn protein in SMA patient fibroblast cells (GM03813). The data set is described as follows: Smn protein assay in cultured cells (SMN HTRF). The class given is cell-based, human. The conditions noted are these: SMA patient fibroblast cells, 48 hours; for EC1.5x for Smn protein expression: 7-point concentration curve, SMN HTRF, concentration producing 1.5 times Smn protein vs DMSO vehicle control; for maximum fold (Fold) increase of Smn protein: 7-point concentration data, fold relative to vehicle control. The gist of the method: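 Read-out: HTRF 665/620 nm ratio, blank-subtracted as ΔF, then expressed as fold over DMSO vehicle. Fibroblasts from SMA patients were exposed to compounds for 48 h (7 points, 3.16-fold steps, triplicates). Values are EC1.5× and maximum fold Smn increase.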
(In general: Time-resolved FRET reads energy transfer from a long-lived donor to a nearby acceptor.)

In general, melting point refers to the temperature of the solid-liquid transition. Take `CCc1nc(C)cn2nc(-c3cc(=O)n4cc(C5=CC(C)(C)NC(C)(C)C5)ccc4n3)cc12` [Compound 745, 2-(4-ethyl-6-methylpyrazolo[1,5-a]pyrazin-2-yl)-7-(2,2,6,6-tetramethyl-1,2,3,6-tetrahydropyridin-4-yl)-4H-pyrido[1,2-a]pyrimidin-4-one]: the melting point was 255 to 258 °C. Moreover, the EC (1.5-fold increase) in data set [1] was less than 0.1 µM. Also, in data set [2], the “EC1.5x for Smn protein expression” value is given as “**** (an EC1.5x≤0.3 μM is indicated by four stars (****))” and the “maximum fold (Fold) increase of Smn protein” value (“maximum fold (Fold) increase” below) is recorded as “***** (a fold increase >1.65 is indicated by five stars (*****))”.
Turning to `Cc1cn2nc(-c3cc(=O)n4cc(N5C[C@H]6CNC[C@H]6C5)ccc4n3)cc2c(C)n1` [Compound 746, 2-(4,6-dimethylpyrazolo[1,5-a]pyrazin-2-yl)-7-[(3aR,6aS)-hexahydropyrrolo[3,4-c]pyrrol-2(1H)-yl]-4H-pyrido[1,2-a]pyrimidin-4-one], the melting point lay in the range of 239 to 242 °C. For the same molecule, the EC (1.5-fold increase) in data set [1] was less than 0.1 µM. In addition, in data set [2], the “EC1.5x for Smn protein expression” value was “**** (an EC1.5x≤0.3 μM is indicated by four stars (****))” and the “maximum fold (Fold) increase” value was “***** (a fold increase >1.65 is indicated by five stars (*****))”.
As for `CCc1nc(C)cn2nc(-c3cc(=O)n4cc(N5C[C@H]6CNC[C@H]6C5)ccc4n3)cc12` [Compound 747, 2-(4-ethyl-6-methylpyrazolo[1,5-a]pyrazin-2-yl)-7-[(3aR,6aS)-hexahydropyrrolo[3,4-c]pyrrol-2(1H)-yl]-4H-pyrido[1,2-a]pyrimidin-4-one], the melting point was in the range of 246 to 249 °C. Also, in data set [1], the EC (1.5-fold increase) is less than 0.1 µM. For the same molecule, in data set [2], the “EC1.5x for Smn protein expression” value was “**** (an EC1.5x≤0.3 μM is indicated by four stars (****))” and the “maximum fold (Fold) increase” value is “***** (a fold increase >1.65 is indicated by five stars (*****))”.
The molecule `CCc1nc(C)cn2cc(-c3cc(=O)n4cc(N5C[C@@H](C)N[C@@H](C)C5)ccc4n3)cc12` [Compound 748, 7-[(3R,5S)-3,5-dimethylpiperazin-1-yl]-2-(1-ethyl-3-methylpyrrolo[1,2-a]pyrazin-7-yl)-4H-pyrido[1,2-a]pyrimidin-4-one] had a melting point of 238 to 241 °C. Further, in data set [1], the EC (1.5-fold increase) was less than 0.1 µM. Further, in data set [2], the “EC1.5x for Smn protein expression” value was “**** (an EC1.5x≤0.3 μM is indicated by four stars (****))” and the “maximum fold (Fold) increase” value was “***** (a fold increase >1.65 is indicated by five stars (*****))”.
`CCc1nc(C)cn2cc(-c3cc(=O)n4cc(N5CCCNCC5)ccc4n3)cc12` [Compound 749, 7-(1,4-diazepan-1-yl)-2-(1-ethyl-3-methylpyrrolo[1,2-a]pyrazin-7-yl)-4H-pyrido[1,2-a]pyrimidin-4-one] yielded a melting point of 200 to 202 °C. The EC (1.5-fold increase) in data set [1] was less than 0.1 µM. For the same molecule, in data set [2], the “EC1.5x for Smn protein expression” value is on record as “**** (an EC1.5x≤0.3 μM is indicated by four stars (****))” and the “maximum fold (Fold) increase” value is given as “***** (a fold increase >1.65 is indicated by five stars (*****))”.
On to `Cc1cc(-c2cc(=O)n3cc(N4CCN[C@@H](C)C4)ccc3n2)cc2cn(C)nc12` [Compound 750, 2-(2,7-dimethyl-2H-indazol-5-yl)-7-[(3S)-3-methylpiperazin-1-yl]-4H-pyrido[1,2-a]pyrimidin-4-one], for which the melting point is 308 to 310 °C. Moreover, the EC (1.5-fold increase) in data set [1] was less than 0.1 µM. Also, in data set [2], the “EC1.5x for Smn protein expression” value was “**** (an EC1.5x≤0.3 μM is indicated by four stars (****))” and the “maximum fold (Fold) increase” value is “***** (a fold increase >1.65 is indicated by five stars (*****))”.
The molecule `Cc1cc(-c2cc(=O)n3cc(N4CCN(C)[C@@H](C)C4)ccc3n2)cc2cn(C)nc12` [Compound 751, 2-(2,7-dimethyl-2H-indazol-5-yl)-7-[(3S)-3,4-dimethylpiperazin-1-yl]-4H-pyrido[1,2-a]pyrimidin-4-one] came in with a melting point of 202 to 204 °C. Further, the EC (1.5-fold increase) in data set [1] was less than 0.1 µM. In data set [2], the “EC1.5x for Smn protein expression” value is recorded as “**** (an EC1.5x≤0.3 μM is indicated by four stars (****))” and the “maximum fold (Fold) increase” value was “***** (a fold increase >1.65 is indicated by five stars (*****))”.
The matching figures for `Cc1cc(-c2cc(=O)n3cc(C4CCN(C)CC4)ccc3n2)cc2cn(C)nc12` [Compound 752, 2-(2,7-dimethyl-2H-indazol-5-yl)-7-(1-methylpiperidin-4-yl)-4H-pyrido[1,2-a]pyrimidin-4-one]: 208 to 210 °C, less than 0.1 µM, “**** (an EC1.5x≤0.3 μM is indicated by four stars (****))” and “***** (a fold increase >1.65 is indicated by five stars (*****))”.
With `CCN1CCC(c2ccc3nc(-c4cc(C)c5nn(C)cc5c4)cc(=O)n3c2)CC1` [Compound 753, 2-(2,7-dimethyl-2H-indazol-5-yl)-7-(1-ethylpiperidin-4-yl)-4H-pyrido[1,2-a]pyrimidin-4-one], the melting point fell in the range of 162 to 164 °C. Besides, the EC (1.5-fold increase) in data set [1] was less than 0.1 µM. For the same molecule, in data set [2], the “EC1.5x for Smn protein expression” value is “**** (an EC1.5x≤0.3 μM is indicated by four stars (****))” and the “maximum fold (Fold) increase” value is reported as “***** (a fold increase >1.65 is indicated by five stars (*****))”.
In turn, `Cc1cc(N2CCNCC2)cn2c(=O)cc(-c3ccc4nn(C)cc4c3)nc12` [Compound 754, 9-methyl-2-(2-methyl-2H-indazol-5-yl)-7-(piperazin-1-yl)-4H-pyrido[1,2-a]pyrimidin-4-one] showed a melting point of 233 to 243 °C. Besides, the EC (1.5-fold increase) in data set [1] was less than 0.1 µM. Further, in data set [2], the “EC1.5x for Smn protein expression” value is recorded as “**** (an EC1.5x≤0.3 μM is indicated by four stars (****))” and the “maximum fold (Fold) increase” value is recorded as “***** (a fold increase >1.65 is indicated by five stars (*****))”.
On to `Cc1cn2nc(-c3cc(=O)n4cc(N5CC(N(C)C)C5)ccc4n3)cc2c(C)n1` [Compound 757, 7-[3-(dimethylamino)azetidin-1-yl]-2-(4,6-dimethylpyrazolo[1,5-a]pyrazin-2-yl)-4H-pyrido[1,2-a]pyrimidin-4-one], for which the melting point fell in the range of 226 to 228 °C. Further, the EC (1.5-fold increase) in data set [1] lay in the range of 0.3 to 1 µM. For the same molecule, in data set [2], the “EC1.5x for Smn protein expression” value is “*** (an EC1.5× between >0.3 μM and ≤1 μM is indicated by three stars (***))”; the “maximum fold (Fold) increase” value is “**** (a fold increase between >1.5 and ≤1.65 is indicated by four stars (****))”.
Regarding `CCN(CC)C1CN(c2ccc3nc(-c4cc5c(C)nc(C)cn5n4)cc(=O)n3c2)C1` [Compound 758, 7-[3-(diethylamino)azetidin-1-yl]-2-(4,6-dimethylpyrazolo[1,5-a]pyrazin-2-yl)-4H-pyrido[1,2-a]pyrimidin-4-one], the melting point was 231 to 233 °C. Moreover, the EC (1.5-fold increase) in data set [1] lay in the range of 0.3 to 1 µM. Besides, the “maximum fold (Fold) increase” value in data set [2] is “*** (a fold increase between >1.35 and ≤1.5 is indicated by three stars (***))”.
`Cc1cn2nc(-c3cc(=O)n4cc(N5CC(N6CCCC6)C5)ccc4n3)cc2c(C)n1` [Compound 759, 2-(4,6-dimethylpyrazolo[1,5-a]pyrazin-2-yl)-7-[3-(pyrrolidin-1-yl)azetidin-1-yl]-4H-pyrido[1,2-a]pyrimidin-4-one] returned a melting point of 235 to 237 °C. For the same molecule, the EC (1.5-fold increase) in data set [1] fell in the range of 0.1 to 0.3 µM. In addition, in data set [2], the “EC1.5x for Smn protein expression” value is “*** (an EC1.5× between >0.3 μM and ≤1 μM is indicated by three stars (***))”; the “maximum fold (Fold) increase” value was “***** (a fold increase >1.65 is indicated by five stars (*****))”.
Molecule `CCc1nc(C)cn2nc(-c3cc(=O)n4cc(N5CCCNCC5)ccc4n3)cc12` [Compound 760, 7-(1,4-diazepan-1-yl)-2-(4-ethyl-6-methylpyrazolo[1,5-a]pyrazin-2-yl)-4H-pyrido[1,2-a]pyrimidin-4-one] displayed a melting point of 212 to 214 °C. For the same molecule, the EC (1.5-fold increase) in data set [1] is less than 0.1 µM. Besides, in data set [2], the “EC1.5x for Smn protein expression” value was “**** (an EC1.5x≤0.3 μM is indicated by four stars (****))” and the “maximum fold (Fold) increase” value is on record as “***** (a fold increase >1.65 is indicated by five stars (*****))”.
For the molecule `CCCc1nc(C)cn2nc(-c3cc(=O)n4cc(N5C[C@H]6CNC[C@H]6C5)ccc4n3)cc12` [Compound 761, 7-[(3aR,6aS)-hexahydropyrrolo[3,4-c]pyrrol-2(1H)-yl]-2-(6-methyl-4-propylpyrazolo[1,5-a]pyrazin-2-yl)-4H-pyrido[1,2-a]pyrimidin-4-one], the melting point lay in the range of 212 to 214 °C. For the same molecule, the EC (1.5-fold increase) in data set [1] is less than 0.1 µM. Moreover, in data set [2], the “EC1.5x for Smn protein expression” value is “**** (an EC1.5x≤0.3 μM is indicated by four stars (****))” and the “maximum fold (Fold) increase” value is listed as “***** (a fold increase >1.65 is indicated by five stars (*****))”.
The molecule `CCCc1nc(C)cn2nc(-c3cc(=O)n4cc(C5=CCNCC5)ccc4n3)cc12` [Compound 762, 2-(6-methyl-4-propylpyrazolo[1,5-a]pyrazin-2-yl)-7-(1,2,3,6-tetrahydropyridin-4-yl)-4H-pyrido[1,2-a]pyrimidin-4-one] showed a melting point of 257 to 260 °C. Also, the EC (1.5-fold increase) in data set [1] was less than 0.1 µM. Moreover, in data set [2], the “EC1.5x for Smn protein expression” value is “**** (an EC1.5x≤0.3 μM is indicated by four stars (****))” and the “maximum fold (Fold) increase” value is on record as “***** (a fold increase >1.65 is indicated by five stars (*****))”.
